#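 Grown in 96-well plates, cells were treated for 48 hours with each compound at five concentrations. Insufficient inhibition: endpoint recorded as highest concentration tested. TGI: concentration producing complete growth inhibition.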
# Tests used:
# Experiment in all cases: NCI tumour cell line growth inhibition, 48 h
# SK-MEL-28 melanoma = tested on: SK-MEL-28 melanoma
# TK-10 renal = tested on: TK-10 renal
# LOX IMVI melanoma = tested on: LOX IMVI melanoma
# U251 CNS = tested on: U251 CNS
# DMS 114 small cell lung = tested on: DMS 114 small cell lung
# HOP-18 NSCLC = tested on: HOP-18 NSCLC
# BT-549 breast = tested on: BT-549 breast
# COLO 205 colon = tested on: COLO 205 colon
# MOLT-4 leukemia = tested on: MOLT-4 leukemia
# OVCAR-4 ovarian = tested on: OVCAR-4 ovarian
# SW-620 colon = tested on: SW-620 colon
# LXFL 529 NSCLC = tested on: LXFL 529 NSCLC
# MDA-MB-435 = tested on: MDA-MB-435
# SK-MEL-2 melanoma = tested on: SK-MEL-2 melanoma
# UO-31 renal = tested on: UO-31 renal
# CAKI-1 renal = tested on: CAKI-1 renal
# SN12C renal = tested on: SN12C renal
# EKVX NSCLC = tested on: EKVX NSCLC
# HL-60(TB) leukemia = tested on: HL-60(TB) leukemia
# SF-539 CNS = tested on: SF-539 CNS
# A549 NSCLC = tested on: A549 NSCLC
# ACHN renal = tested on: ACHN renal
# KM12 colon = tested on: KM12 colon
# RPMI-8226 leukemia = tested on: RPMI-8226 leukemia
# CCRF-CEM leukemia = tested on: CCRF-CEM leukemia
# PC-3 prostate = tested on: PC-3 prostate
# NCI/ADR-RES ovarian = tested on: NCI/ADR-RES ovarian
# DMS 273 small cell lung = tested on: DMS 273 small cell lung
# KM20L2 colon = tested on: KM20L2 colon
# UACC-62 melanoma = tested on: UACC-62 melanoma
# K-562 leukemia = tested on: K-562 leukemia
# DLD-1 colon = tested on: DLD-1 colon
# XF 498 CNS = tested on: XF 498 CNS
# UACC-257 melanoma = tested on: UACC-257 melanoma
# SK-OV-3 ovarian = tested on: SK-OV-3 ovarian
# IGROV1 ovarian = tested on: IGROV1 ovarian
# SNB-19 CNS = tested on: SNB-19 CNS
# MCF7 breast = tested on: MCF7 breast
# SK-MEL-5 melanoma = tested on: SK-MEL-5 melanoma
# MALME-3M melanoma = tested on: MALME-3M melanoma
# HCT-15 colon = tested on: HCT-15 colon
# T-47D breast = tested on: T-47D breast
# MDA-N = tested on: MDA-N
# SNB-78 CNS = tested on: SNB-78 CNS
# SR leukemia = tested on: SR leukemia
# HCT-116 colon = tested on: HCT-116 colon
# HCC-2998 colon = tested on: HCC-2998 colon
# HOP-62 NSCLC = tested on: HOP-62 NSCLC
# HOP-92 NSCLC = tested on: HOP-92 NSCLC
# HS 578T breast = tested on: HS 578T breast
# OVCAR-3 ovarian = tested on: OVCAR-3 ovarian
# RXF 393 renal = tested on: RXF 393 renal
# NCI-H226 lung = tested on: NCI-H226 lung
# SF-295 CNS = tested on: SF-295 CNS
# NCI-H460 lung = tested on: NCI-H460 lung
# OVCAR-8 ovarian = tested on: OVCAR-8 ovarian
# 786-0 renal = tested on: 786-0 renal
# OVCAR-5 ovarian = tested on: OVCAR-5 ovarian
# M19-MEL melanoma = tested on: M19-MEL melanoma
# DU-145 prostate = tested on: DU-145 prostate
# RXF-631 renal = tested on: RXF-631 renal
# A498 renal = tested on: A498 renal
# MDA-MB-231 breast = tested on: MDA-MB-231 breast
# SF-268 CNS = tested on: SF-268 CNS
# HT29 colon = tested on: HT29 colon
# M14 melanoma = tested on: M14 melanoma
# NCI-H522 lung = tested on: NCI-H522 lung
# SNB-75 CNS = tested on: SNB-75 CNS
# NCI-H23 lung = tested on: NCI-H23 lung
smiles,measurement,setting,value
Cc1ccccc1C1=C/C(=C(\SS/C(C(=O)c2ccc(OCC(=O)O)c(Cl)c2Cl)=C2\C=C(c3ccccc3C)SS2)C(=O)c2ccc(OCC(=O)O)c(Cl)c2Cl)SS1,TGI,SK-MEL-28 melanoma,69 µM
same,TGI,TK-10 renal,> 85.1 µM
same,TGI,LOX IMVI melanoma,21.1 µM
same,TGI,U251 CNS,35.9 µM
same,TGI,DMS 114 small cell lung,24.7 µM
same,TGI,HOP-18 NSCLC,23.3 µM
same,TGI,BT-549 breast,> 74.1 µM
same,TGI,COLO 205 colon,47.5 µM
same,TGI,MOLT-4 leukemia,47.6 µM
same,TGI,OVCAR-4 ovarian,64.3 µM
same,TGI,SW-620 colon,67.7 µM
same,TGI,LXFL 529 NSCLC,16.5 µM
same,TGI,MDA-MB-435,> 100 µM
same,TGI,SK-MEL-2 melanoma,42.3 µM
same,TGI,UO-31 renal,51.1 µM
same,TGI,CAKI-1 renal,72.9 µM
same,TGI,SN12C renal,50.6 µM
same,TGI,EKVX NSCLC,> 96.5 µM
same,TGI,HL-60(TB) leukemia,7.65 µM
same,TGI,SF-539 CNS,44.9 µM
same,TGI,A549 NSCLC,> 94.2 µM
same,TGI,ACHN renal,65.4 µM
same,TGI,KM12 colon,51 µM
same,TGI,RPMI-8226 leukemia,51.2 µM
same,TGI,CCRF-CEM leukemia,32.2 µM
same,TGI,PC-3 prostate,27.4 µM
same,TGI,NCI/ADR-RES ovarian,> 100 µM
same,TGI,DMS 273 small cell lung,36.7 µM
same,TGI,KM20L2 colon,> 100 µM
same,TGI,UACC-62 melanoma,43.5 µM
same,TGI,K-562 leukemia,41.6 µM
same,TGI,DLD-1 colon,> 67.2 µM
same,TGI,XF 498 CNS,42.6 µM
same,TGI,UACC-257 melanoma,71.1 µM
same,TGI,SK-OV-3 ovarian,> 100 µM
same,TGI,IGROV1 ovarian,38.5 µM
same,TGI,SNB-19 CNS,> 84.5 µM
same,TGI,MCF7 breast,> 90.7 µM
same,TGI,SK-MEL-5 melanoma,58.6 µM
same,TGI,MALME-3M melanoma,> 87.6 µM
same,TGI,HCT-15 colon,59.4 µM
same,TGI,T-47D breast,49 µM
same,TGI,MDA-N,> 100 µM
same,TGI,SNB-78 CNS,51.4 µM
same,TGI,SR leukemia,57.3 µM
same,TGI,HCT-116 colon,56.2 µM
same,TGI,HCC-2998 colon,> 100 µM
same,TGI,HOP-62 NSCLC,> 100 µM
same,TGI,HOP-92 NSCLC,13.8 µM
same,TGI,HS 578T breast,51.9 µM
same,TGI,OVCAR-3 ovarian,50.6 µM
same,TGI,RXF 393 renal,55.2 µM
same,TGI,NCI-H226 lung,42.1 µM
same,TGI,SF-295 CNS,87 µM
same,TGI,NCI-H460 lung,60.2 µM
same,TGI,OVCAR-8 ovarian,77.1 µM
same,TGI,786-0 renal,> 70 µM
same,TGI,OVCAR-5 ovarian,> 100 µM
same,TGI,M19-MEL melanoma,> 56.4 µM
same,TGI,DU-145 prostate,> 100 µM
same,TGI,RXF-631 renal,> 100 µM
same,TGI,A498 renal,92.6 µM
same,TGI,MDA-MB-231 breast,47.5 µM
same,TGI,SF-268 CNS,45.9 µM
same,TGI,HT29 colon,83.7 µM
same,TGI,M14 melanoma,49.2 µM
same,TGI,NCI-H522 lung,16.8 µM
same,TGI,SNB-75 CNS,84 µM
same,TGI,NCI-H23 lung,55.7 µM

# From PubChem BioAssay (NCI)
